Reference: patent US20090221624A1, “4-AMINOQUINOLINE COMPOUNDS FOR TREATING VIRUS-RELATED CONDITIONS” (priority 2005, published 2009)
Read-outs that look alike come from different tables or passages of the source.

How the values were obtained:
[1] = tested on: HCV replicon (Clone A cells, Huh7, subgenomic hepatits C virus RNA); test: HCV Neo screening assay (HCV replicon, NPTII ELISA); format: cell-based, hepatitis C virus; settings: for inhibition at 25 µM / EC50: Hepatitis C virus, Huh-7; for inhibition at 25 µM: primary screening, 25 μM final concentration, 24 hours, percent inhibition of viral replication, read-out: HCV Inh; for EC50: Secondary Data, HCV; for HCV TI: therapeutic index CC50/EC50, HCV
[2] = tested on: RSV minigenome; test: RSV minigenome-dependent β-galactosidase expression assay (RSV β-Gal); format: cell-based, respiratory syncytial virus; settings: for EC50: Secondary Data, RSV, read-out: RSV EC50; for inhibition at 25 µM: primary screening, 25 μM final concentration, 24 hours, percent inhibition of viral replication, read-out: RSV Inh; for RSV TI: therapeutic index CC50/EC50, RSV
[3] = tested on: WNV (WN-hRuPac cells); test: WNV antiviral activity, WN-hRuPac cells, Renilla luciferase; format: cell-based, West Nile virus; settings: for EC50 / inhibition at 25 µM: West Nile virus; for EC50: Secondary Data, WNV, read-out: WNV EC50; for inhibition at 25 µM: primary screening, 25 μM final concentration, 24 hours, percent inhibition of viral replication, read-out: WNV Inh; for WNV TI: therapeutic index CC50/EC50, WNV
[4] = tested on: YFV (YF-hRuPac cells); test: microbe, parasite or virus in culture; format: cell-based, yellow fever virus; settings: for inhibition at 25 µM / EC50: Yellow fever virus; for inhibition at 25 µM: 24 h, read-out: YFV Inh; for EC50: read-out: YFV EC50
[5] = tested on: DNG (D2-hRuPac cells); test: DNG antiviral activity, D2-hRuPac cells, Renilla luciferase; format: cell-based, Dengue fever virus; settings: Dengue virus, secondary screening
[6] = tested on: EBOV minigenome; test: microbe, parasite or virus in culture; format: cell-based, Ebola virus; settings: for inhibition at 25 µM: 24 h, read-out: EBOV Inh; for EC50: read-out: EBOV EC50
[7] = tested on: SINV (SR19-F-luc cells); test: SINV antiviral activity, SR19-F-luc cells, Firefly luciferase; format: cell-based; settings: Sindbis virus; for inhibition at 25 µM: primary screening, 25 μM final concentration, 24 hours, percent inhibition of viral replication, read-out: SINV Inh; for EC50: secondary screening, SR19-F-luc cells
[8] = in vitro
[9] = tested on: viable cells (intracellular ATP)
[10] = human respiratory syncytial virus

Row | Structure (SMILES) | inhibition at 25 µM [1] | EC50 [2, 10] | inhibition at 25 µM [2, 10] | RSV TI [2] | EC50 [3] | inhibition at 25 µM [3] | WNV TI [3] | YFV TI [4] | inhibition at 25 µM [4] | EC50 [4] | EC50 [5] | inhibition at 25 µM ([6]; Zaire ebolavirus) | inhibition at 25 µM [7] | EC50 [7] | CC50 ([8]; DNG CC50) | CC50 ([8]; EBOV CC50) | CC50 ([8]; RSV CC50) | CC50 ([8]; SINV CC50) | CC50 ([8]; WNV CC50) | CC50 ([8]; YFV CC50) | other results
1 | CCOC(=O)c1cnc2ccc(F)cc2c1NCCCN(C)C [Compound 66] | 39.6% | 44.8 µM | 17.6% | 1.44 | 22.9 µM | 40.8% | 2.82 | 0.86 | 11.4% | ≥ 75 µM | 51.4 µM | 84.1% | 14.9% | 9.53 µM | 64.6 µM | 64.6 µM | 64.6 µM | 64.6 µM | 64.6 µM | 64.6 µM | EC50 ([6]; Zaire ebolavirus): 14.1 µM
2 | CCOC(=O)c1cnc2c(OC)cccc2c1NCC(C)O (centres unmarked) [Compound 69] | 19.8% | 2.21 µM | 98.3% | 15.67 | 13.7 µM | 44.6% | 2.53 | 1.35 | 70.1% | 25.7 µM | 44 µM | 64.4% | 60.9% | 37.1 µM | 34.6 µM | 34.6 µM | 34.6 µM | 34.6 µM | 34.6 µM | 34.6 µM | EC50 ([6]; Zaire ebolavirus): 57.6 µM; CC50 ([8]; HCV CC50): ≥ 75 µM
3 | CCOC(=O)c1cnc2c(OC)cccc2c1NC(C)c1ccccc1 (centres unmarked) [Compound 71] | 80.1% | 4.47 µM | 93.3% | 11.03 | 13.9 µM | 24.7% | 3.55 | 0.84 | 71.2% | 58.5 µM | 37.2 µM | 90.1% | 49.1% | 5.52 µM | 49.3 µM | 49.3 µM | 49.3 µM | 49.3 µM | 49.3 µM | 49.3 µM | EC50 [1]: 8.95 µM; HCV TI [1]: 4.42; EC50 ([6]; Zaire ebolavirus): 29.5 µM; CC50 ([8]; HCV CC50): 39.6 µM
4 | CCOC(=O)c1cnc2c(C(F)(F)F)cccc2c1Nc1ccc(S(=O)(=O)Nc2nc(C)cc(C)n2)cc1 [Compound 72] | -24.8% | 41.7 µM | 50.3% | 1.8 | 13.3 µM | 83.2% | 5.64 | 3.59 | 90% | 20.9 µM | 12 µM | 86% | -4.36% | 37.1 µM | ≥ 75 µM | ≥ 75 µM | ≥ 75 µM | ≥ 75 µM | ≥ 75 µM | ≥ 75 µM | EC50 ([6]; Zaire ebolavirus): 17.3 µM; CC50 ([8]; HCV CC50): ≥ 75 µM
5 | COC(=O)c1ccc2nc(C)cc(Nc3cccc(O)c3)c2c1 [Compound 73] | 89.5% | 28.9 µM | 63.1% | 2.5 | 25.8 µM | 31.5% | 2.8 | 1.79 | 51.8% | 40.3 µM | 16.8 µM | 62.1% | 80.8% | 5.99 µM | 72.3 µM | 72.3 µM | 72.3 µM | 72.3 µM | 72.3 µM | 72.3 µM | EC50 [1]: 2.32 µM; HCV TI [1]: 15.17; CC50 ([8]; HCV CC50): 35.2 µM
6 | CCOC(=O)c1cnc2ccc(F)cc2c1Nc1ccc(S(=O)(=O)Nc2nc(C)cc(C)n2)cc1 [Compound 74] | 39.4% | ≥ 75 µM | 26.6% | – | 9.72 µM | 90.5% | 7.72 | 7.75 | 93.5% | 9.68 µM | 4.08 µM | 76.1% | 19.4% | ≥ 75 µM | ≥ 75 µM | ≥ 75 µM | ≥ 75 µM | ≥ 75 µM | ≥ 75 µM | ≥ 75 µM | –
7 | CCOC(=O)c1cnc2c(C)cc(C)cc2c1NCCCN(C)C [Compound 75] | 122% | 5.79 µM | 92.7% | 4.04 | 9 µM | 79.2% | 2.6 | 3.13 | 69.1% | 7.48 µM | 6.09 µM | 95.1% | 83.8% | 11 µM | 23.4 µM | 23.4 µM | 23.4 µM | 23.4 µM | 23.4 µM | 23.4 µM | EC50 [1]: 0.75 µM; HCV TI [1]: 14.4; EC50 ([6]; Zaire ebolavirus): 7.15 µM; CC50 ([8]; HCV CC50): 10.8 µM
8 | COc1ccc2nc(C)cc(Nc3ccc(I)cc3)c2c1 [Compound 76] | 152% | 18.2 µM | 75.9% | 1.95 | 50.4 µM | 85.9% | 0.7 | 3.98 | 93.1% | 8.92 µM | 13.5 µM | 93.9% | 93.5% | 2.55 µM | 35.5 µM | 35.5 µM | 35.5 µM | 35.5 µM | 35.5 µM | 35.5 µM | EC50 [1]: 11.3 µM; HCV TI [1]: 1.9; EC50 ([6]; Zaire ebolavirus): 19.8 µM; CC50 ([8]; HCV CC50): 21.5 µM
9 | COc1ccccc1Nc1cc(C)nc2c(C)c(C)cc(N)c12 [Compound 79] | – | – | – | 23.3 | 19 µM | – | 2.7 | 16.53 | – | 3.1 µM | 8.26 µM | – | – | 8.57 µM | – | – | – | – | – | – | EC50 [2]: 2.2 µM; EBOV Inh [6]: 49.83%; EC50 [6]: 43.5 µM; CC50 [9]: 51.2 µM; CC50 ([8]; HCV CC50): ≥ 75 µM
